# Source: patent US20110230476A1, “PI3 KINASE INHIBITORS AND USES THEREOF” (AVILA THERAPEUTICS, INC., priority 2009, published 2011)
# Target: T1, PI3Kα (p110α/p85α) (Homo sapiens, UniProt P42336)
# T1 construct: purchased BPS Bioscience (San Diego, Calif.) or Millipore (Billerica, Mass.)
# Experiment: HTRF assay, potency against active PI3Kα
# Format: biochemical
# Conditions: HTRF; [ATP]=50 μM, [di-C8-PIP2]=10 μM; 30 min pre-incubation; read-out: PI3Kα Inhibition
# Procedure, shortened: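 Active p110/p85α lipid kinase reactions were started with ATP and run 30-60 minutes at 25 °C, then stopped and developed with HTRF detection mix. HTRF ratio converted to % inhibition against ±enzyme controls; IC50 from log[inhibitor] vs response, variable slope.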
# T1 sequence (P42336 whole entry): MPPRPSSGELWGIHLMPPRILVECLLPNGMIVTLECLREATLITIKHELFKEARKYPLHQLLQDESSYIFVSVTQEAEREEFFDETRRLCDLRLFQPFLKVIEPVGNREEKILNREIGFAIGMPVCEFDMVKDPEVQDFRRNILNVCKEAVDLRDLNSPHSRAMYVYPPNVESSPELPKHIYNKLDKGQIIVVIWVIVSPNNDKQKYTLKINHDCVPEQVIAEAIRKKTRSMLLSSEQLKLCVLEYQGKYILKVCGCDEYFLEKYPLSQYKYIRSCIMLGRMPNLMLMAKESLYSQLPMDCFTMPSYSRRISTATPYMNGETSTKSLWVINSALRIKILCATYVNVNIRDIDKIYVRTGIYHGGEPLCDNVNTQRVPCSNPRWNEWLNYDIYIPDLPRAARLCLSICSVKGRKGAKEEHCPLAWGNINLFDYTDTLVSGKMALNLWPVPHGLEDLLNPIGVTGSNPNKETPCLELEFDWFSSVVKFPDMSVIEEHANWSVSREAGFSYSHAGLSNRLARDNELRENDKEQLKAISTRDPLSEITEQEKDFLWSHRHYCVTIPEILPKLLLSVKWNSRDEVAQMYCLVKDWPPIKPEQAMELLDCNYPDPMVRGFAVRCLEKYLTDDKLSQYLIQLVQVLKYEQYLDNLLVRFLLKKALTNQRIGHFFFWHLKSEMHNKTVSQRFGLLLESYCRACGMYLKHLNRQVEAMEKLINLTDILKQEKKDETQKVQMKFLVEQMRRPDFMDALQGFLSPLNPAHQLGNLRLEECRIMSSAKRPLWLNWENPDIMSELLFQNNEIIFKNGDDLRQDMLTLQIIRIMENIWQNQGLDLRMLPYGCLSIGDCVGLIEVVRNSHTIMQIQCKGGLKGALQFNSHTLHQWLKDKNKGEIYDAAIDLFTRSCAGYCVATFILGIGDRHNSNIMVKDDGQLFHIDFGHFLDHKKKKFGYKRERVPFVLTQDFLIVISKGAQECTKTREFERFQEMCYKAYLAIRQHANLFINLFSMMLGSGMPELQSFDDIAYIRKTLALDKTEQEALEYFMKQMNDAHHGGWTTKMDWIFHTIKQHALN
# T1 sequence (P27986 whole entry partner): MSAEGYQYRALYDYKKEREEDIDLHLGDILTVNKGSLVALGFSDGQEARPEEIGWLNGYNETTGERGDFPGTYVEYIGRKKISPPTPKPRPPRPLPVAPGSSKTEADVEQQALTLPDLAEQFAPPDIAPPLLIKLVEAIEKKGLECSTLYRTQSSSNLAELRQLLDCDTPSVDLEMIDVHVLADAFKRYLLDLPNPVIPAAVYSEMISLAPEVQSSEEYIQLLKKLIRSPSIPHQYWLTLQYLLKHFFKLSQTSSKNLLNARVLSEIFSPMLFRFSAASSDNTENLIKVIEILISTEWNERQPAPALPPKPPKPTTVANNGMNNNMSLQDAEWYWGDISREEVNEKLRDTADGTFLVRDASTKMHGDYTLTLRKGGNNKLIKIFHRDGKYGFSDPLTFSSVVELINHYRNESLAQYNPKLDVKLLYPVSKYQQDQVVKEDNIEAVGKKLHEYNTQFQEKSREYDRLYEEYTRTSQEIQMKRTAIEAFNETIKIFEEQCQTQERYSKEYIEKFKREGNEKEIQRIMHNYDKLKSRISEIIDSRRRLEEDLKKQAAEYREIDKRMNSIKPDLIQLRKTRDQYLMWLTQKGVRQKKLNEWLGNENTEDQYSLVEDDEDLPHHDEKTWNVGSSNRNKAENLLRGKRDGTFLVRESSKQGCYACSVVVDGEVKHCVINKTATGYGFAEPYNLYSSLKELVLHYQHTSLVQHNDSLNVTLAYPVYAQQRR
row,SMILES,IC50 [nM]
1,"CC(C)=CC(=O)CCCC(=O)NCC#Cc1cc(-c2cnc(N)nc2)nc(N2CCOCC2)c1 [XII-20, N-(3-(2-(2-aminopyrimidin-5-yl)-6-morpholinopyridin-4-yl)prop-2-ynyl)-7-methyl-5-oxooct-6-enamide]",100 to 1000
2,"CC(C)=CC(=O)CCCC(=O)N1CCN(Cc2cc(-c3cnc(N)nc3)nc(N3CCOCC3)c2)CC1 [XII-23, 1-(4-((2-(2-aminopyrimidin-5-yl)-6-morpholinopyridin-4-yl)methyl)piperazin-1-yl)-7-methyloct-6-ene-1,5-dione]",100 to 1000
3,"CC(C)=CC(=O)C(=O)N1CCN(c2ccc(-c3cc(-c4cnc(N)nc4)nc(N4CCOCC4)c3)cn2)CC1 [XII-25, 1-(4-(2′-(2-aminopyrimidin-5-yl)-6′-morpholino-3,4′-bipyridin-6-yl)piperazin-1-yl)-4-methylpent-3-ene-1,2-dione]",10 to 100
4,"CC(C)=CC(=O)CN1CCN(c2ccc(-c3cc(-c4cnc(N)nc4)nc(N4CCOCC4)c3)cn2)CC1 [XII-27, 1-(4-(2′-(2-aminopyrimidin-5-yl)-6′-morpholino-3,4′-bipyridin-6-yl)piperazin-1-yl)-4-methylpent-3-en-2-one]",10 to 100
5,"CC(C)CC(=O)C(=O)N1CCN(c2ccc(-c3cc(-c4cnc(N)nc4)nc(N4CCOCC4)c3)cn2)CC1 [XII-29, 1-(4-(2′-(2-aminopyrimidin-5-yl)-6′-morpholino-3,4′-bipyridin-6-yl)piperazin-1-yl)-4-methylpentane-1,2-dione]",100 to 1000
6,"CC(C)=CC(=O)CCCC(=O)N1CCN(c2cc(-c3cnc(N)nc3)nc(N3CCOCC3)c2)CC1 [XII-30, 1-(4-(2-(2-aminopyrimidin-5-yl)-6-morpholinopyridin-4-yl)piperazin-1-yl)-7-methyloct-6-ene-1,5-dione]",100 to 1000
7,"CC(C)=CC(=O)CCC(=O)N1CCC(C#Cc2cc(-c3cnc(N)nc3)nc(N3CCOCC3)c2)CC1 [XII-31, 1-(4-((2-(2-aminopyrimidin-5-yl)-6-morpholinopyridin-4-yl)ethynyl)piperidin-1-yl)-6-methylhept-5-ene-1,4-dione]",100 to 1000
8,"CC(C)=CC(=O)C(=O)N1CCC(C#Cc2cc(-c3cnc(N)nc3)nc(N3CCOCC3)c2)CC1 [XII-32, 1-(4-((2-(2-aminopyrimidin-5-yl)-6-morpholinopyridin-4-yl)ethynyl)piperidin-1-yl)-4-methylpent-3-ene-1,2-dione]",100 to 1000
9,"CC(C)=CC(=O)C1(C(=O)N2CCC(C#Cc3cc(-c4cnc(N)nc4)nc(N4CCOCC4)c3)CC2)CC1 [XII-33, 1-(1-(4-((2-(2-aminopyrimidin-5-yl)-6-morpholinopyridin-4-yl)ethynyl)piperidine-1-carbonyl)cyclopropyl)-3-methylbut-2-en-1-one]",100 to 1000
10,"CC(C)=CC(=O)CN1CCN(C2CCN(c3cc(-c4cnc(N)nc4)nc(N4CCOCC4)c3)CC2)CC1 [XII-34, 1-(4-(1-(2-(2-aminopyrimidin-5-yl)-6-morpholinopyridin-4-yl)piperidin-4-yl)piperazin-1-yl)-4-methylpent-3-en-2-one]",100 to 1000
11,"CC(C)=CC(=O)C(=O)N1CCN(C2CCN(c3cc(-c4cnc(N)nc4)nc(N4CCOCC4)c3)CC2)CC1 [XII-35, 1-(4-(1-(2-(2-aminopyrimidin-5-yl)-6-morpholinopyridin-4-yl)piperidin-4-yl)piperazin-1-yl)-4-methylpent-3-ene-1,2-dione]",100 to 1000
12,"CC(C)=CC(=O)C1(C(=O)N2CCC3(CC2)CCN(c2cc(-c4cnc(N)nc4)nc(N4CCOCC4)c2)CC3)CC1 [XII-36, 1-(1-(9-(2-(2-aminopyrimidin-5-yl)-6-morpholinopyridin-4-yl)-3,9-diazaspiro[5.5]undecane-3-carbonyl)cyclopropyl)-3-methylbut-2-en-1-one]",100 to 1000
13,"CC(C)=CC(=O)C1(C(=O)N2CC=C(C#Cc3cc(-c4cnc(N)nc4)nc(N4CCOCC4)c3)CC2)CC1 [XII-37, 1-(1-(4-((2-(2-aminopyrimidin-5-yl)-6-morpholinopyridin-4-yl)ethynyl)-1,2,3,6-tetrahydropyridine-1-carbonyl)cyclopropyl)-3-methylbut-2-en-1-one]",10 to 100
14,"CC(C)=CC(=O)C1(C(=O)N2CCC3(CC2)CN(c2cc(-c4cnc(N)nc4)nc(N4CCOCC4)c2)C3)CC1 [XII-38, 1-(1-(2-(2-(2-aminopyrimidin-5-yl)-6-morpholinopyridin-4-yl)-2,7-diazaspiro[3.5]nonane-7-carbonyl)cyclopropyl)-3-methylbut-2-en-1-one]",100 to 1000
15,"C/C=C/C(=O)CCC(=O)N1CCC2(CC1)CN(c1cc(-c3cnc(N)nc3)nc(N3CCOCC3)c1)C2 [XII-40, (E)-1-(2-(2-(2-aminopyrimidin-5-yl)-6-morpholinopyridin-4-yl)-2,7-diazaspiro[3.5]nonan-7-yl)hept-5-ene-1,4-dione]",100 to 1000
16,"CC(C)=CC(=O)CCCC(=O)N1CC2(CCN(c3cc(-c4cnc(N)nc4)nc(N4CCOCC4)c3)CC2)C1 [XII-44, 1-(7-(2-(2-aminopyrimidin-5-yl)-6-morpholinopyridin-4-yl)-2,7-diazaspiro[3.5]nonan-2-yl)-7-methyloct-6-ene-1,5-dione]",> 1000
17,"CCCC(=O)CCC(=O)N1CCC(n2nc(-c3ccc(OC)c(OC)c3)c3c(N)ncnc32)CC1 [XI^R-1, 1-(4-(4-amino-3-(3,4-dimethoxyphenyl)-1H-pyrazolo[3,4-d]pyrimidin-1-yl)piperidin-1-yl)heptane-1,4-dione]",> 1000
18,"CCC(=O)N(C)CC(=O)N1CCC(n2nc(-c3ccc(OC)c(OC)c3)c3c(N)ncnc32)CC1 [XI^R-2, N-(2-(4-(4-amino-3-(3,4-dimethoxyphenyl)-1H-pyrazolo[3,4-d]pyrimidin-1-yl)piperidin-1-yl)-2-oxoethyl)-N-methylpropionamide]",> 1000

# Other lines, results leading:
row,IC50 [nM],SMILES
1,> 1000,"C=CC(=O)Nc1ccc(CCNC(=O)c2cc(-c3cccc4[nH]ncc34)nc(N3CCOCC3)c2)cc1 [XII-13, N-(4-acrylamidophenethyl)-2-(1H-indazol-4-yl)-6-morpholinoisonicotinamide]"
2,> 1000,"C=CC(=O)Nc1ccc(CNC(=O)c2cc(-c3cccc4[nH]ncc34)nc(N3CCOCC3)c2)cc1 [XII-14, N-(4-acrylamidobenzyl)-2-(1H-indazol-4-yl)-6-morpholinoisonicotinamide]"
3,100 to 1000,"C=CC(=O)Nc1ccc(CCNC(=O)c2cc(-c3cnc(N)nc3C)nc(N3CCOCC3)c2)cc1 [XII-16, N-(4-acrylamidophenethyl)-2-(2-amino-4-methylpyrimidin-5-yl)-6-morpholinoisonicotinamide]"
4,> 1000,"C=CC(=O)Nc1ccc(CNC(=O)c2cc(-c3cnc(N)nc3C)nc(N3CCOCC3)c2)cc1 [XII-17, N-(4-acrylamidobenzyl)-2-(2-amino-4-methylpyrimidin-5-yl)-6-morpholinoisonicotinamide]"
5,> 1000,"CC(C)=CC(=O)CCc1ccc(C#Cc2cc(-c3cccc4[nH]ncc34)nc(N3CCOCC3)c2)cc1 [XII-19, 1-(4-((2-(1H-indazol-4-yl)-6-morpholinopyridin-4-yl)ethynyl)phenyl)-5-methylhex-4-en-3-one]"
6,> 1000,"CC(C)=CC(=O)CCc1ccc(C#Cc2cc(-c3cnc(N)nc3)nc(N3CCOCC3)c2)cc1 [XII-21, 1-(4-((2-(2-aminopyrimidin-5-yl)-6-morpholinopyridin-4-yl)ethynyl)phenyl)-5-methylhex-4-en-3-one]"
7,< 10,"CC(C)=CC(=O)C(=O)Nc1ccc(C#Cc2cc(-c3cnc(N)nc3)nc(N3CCOCC3)c2)cc1 [XII-22, N-(4-((2-(2-aminopyrimidin-5-yl)-6-morpholinopyridin-4-yl)ethynyl)phenyl)-4-methyl-2-oxopent-3-enamide]"
8,10 to 100,"CC(C)=CC(=O)C(=O)N1CCN(c2ccc(-c3cc(-c4cnc(N)nc4)nc(N4CCOCC4)c3)cc2)CC1 [XII-24, 1-(4-(4-(2-(2-aminopyrimidin-5-yl)-6-morpholinopyridin-4-yl)phenyl)piperazin-1-yl)-4-methylpent-3-ene-1,2-dione]"
9,10 to 100,"CC(C)=CC(=O)C(=O)N1CCN(c2cc(C)c(-c3cc(-c4cnc(N)nc4)nc(N4CCOCC4)c3)cn2)CC1 [XII-26, 1-(4-(2′-(2-aminopyrimidin-5-yl)-4-methyl-6′-morpholino-3,4′-bipyridin-6-yl)piperazin-1-yl)-4-methylpent-3-ene-1,2-dione]"
10,100 to 1000,"C=CC(=O)N1CCN(c2ccc(-c3cc(-c4cnc(N)nc4)nc(N4CCOCC4)c3)cn2)CC1 [XII-28, 1-(4-(2′-(2-aminopyrimidin-5-yl)-6′-morpholino-3,4′-bipyridin-6-yl)piperazin-1-yl)prop-2-en-1-one]"
11,100 to 1000,"C=CC(=O)Nc1ccc(C(=O)N2CCN(c3cc(-c4cnc(N)nc4)nc(N4CCOCC4)c3)CC2)cc1 [XII-53, N-(4-(4-(2-(2-aminopyrimidin-5-yl)-6-morpholinopyridin-4-yl)piperazine-1-carbonyl)phenyl)acrylamide]"
